Measurements from patent US11034702B2, “Thienoisoquinolines and their derivatives for the treatment of cancer” (VALORBEC, SOCIÉTÉ EN COMMANDITE, priority 2016, dated 2021).

Experiments:
HCT116 (p53-/-) cells = test: Mitotic arrest (percentage of cells in mitosis) in HCT116 cells; format: cell-based; details: HCT116, within one population doubling time
Method: FIG. 2A) is a line graph showing the percentage of HCT116 (p53−/−) cells, A549 cells, HeLa cells and H1299 cells in mitosis after treatment with various concentrations of C75 for one population doubling time. All of the cell lines show an increase in the proportion of mitotic cells after treatment with 200 nM C75. The bars indicate standard deviation. […] While the mitotic spindles were not dramatically altered by C75 in HFF1 cells, they were monopolar (as shown) or fragmented in the other cell types. […] The mitotic spindles were more strongly fragmented after C75 treatment in these cells vs. the cells in FIG. 2B). […] While mitotic spindles recovered bipolarity after removing nocodazole, they remained multipolar after removing C75. FIG. 2F) is a series of time-lapse images of a live HeLa cell expressing GFP:tubulin after treatment with C75 as shown in 2D) and 2E). The scale bar for all cells is 10 μm. FIG. 2G) is a schematic showing the putative target for C75. […]
C75 was also tested for efficacy in different cancer cell lines. […] To further assess the role of C75 in affecting centrosomes, HeLa cells were treated with C75 for a short period of time (5 minutes), then C75 was removed and the cells were analyzed for spindle phenotypes (schematic in FIG. 2D). […]

HFF1 cells = test: Percentage of mitotic HFF1 cells with paclitaxel +/- C75; format: cell-based
Text: FIG. 3A) is a line graph showing the percentage of mitotic HeLa or HFF1 cells treated with a range of paclitaxel (Taxol™; tubulin-targeting drug) concentrations+/−C75 as indicated. The bars indicate standard deviation. FIG. 3B) is a series of bar graphs showing the proportion of HCT116 cells that have monopolar spindles, bipolar spindles with aligned chromosomes, bipolar spindles with misaligned chromosomes and multipolar/fragmented spindles after treatments as shown. Treatments include DMSO (control), varying concentrations of paclitaxel and/or varying concentrations of C75 after 7 hours. While treatment of HCT116 cells with 2.5 nM paclitaxel caused a threshold of mitotic spindle phenotypes, adding increasing concentrations of C75 in combination with 2.5 nM paclitaxel caused the phenotypes to progressively worsen. FIG. 3C) is bar graph showing the average distance between centrosome fragments in HCT116 cells after treatments as shown. While centrosome fragments moved closer together with increased concentrations of paclitaxel, they moved further apart with increased concentrations of C75. […] FIG. 3E) is a line graph showing the percentage of mitotic HeLa or HFF1 cells treated with a range of nocodazole concentrations+/−C75 as indicated. The bars indicate standard deviation. […]

HeLa spheroids = test: HeLa multicellular tumour spheroids; format: cell-based, human
Method: FIG. 5A) is a series of images of HeLa multicellular tumor spheroids (spheroids) treated with control (500 nM C87), empty nanoparticles, 500 nM C75 and 250 nM C75-loaded nanoparticles over 3 days. […] The scale bar for all images is 100 μm. FIG. 5B) is a series images of HeLa spheroids after three days of treatment with control (500 nM C87) or 500 nM C75. The spheroids were stained for fluorescein diacetate (to detect live cells) and propidium iodide (to detect dead cells). […] The scale bar for all images is 100 μm. FIG. 5C) is a series of images of HCT116 spheroids treated with control (1 μM C87), 500 nM C75, 1 μM C75 and 500 nM C75-loaded nanoparticles over 5 days. […] The borders of the spheroids treated with 1 μM C75 or with 500 nM C75-loaded nanoparticles became highly irregular, indicative of loss of spheroid integrity. FIG. 5D) is a series images of HCT116 spheroids after six days of treatment with control (1 μM C87) or 1 μM C75. The spheroids were stained for fluorescein diacetate (live cells) and propidium iodide (dead cells). […] FIG. 5E) is a line graph showing the growth in surface area (%) of HCT116 spheroids treated with control (1 μM C87), 500 nM C75 and 1 μM C75 after six days. FIG. 5F) is a series of images of A549 spheroids treated with control (750 nM C87), 500 nM C75, 1 μM C75 and 500 nM C75-loaded nanoparticles over 5 days. […] The scale bar for all images is 100 μm. […]

COc1ccc(S(=O)(=O)N2Cc3ccccc3-c3sc(Br)cc32)cc1 [Compound C75]
concentration causing mitotic arrest (HCT116 (p53-/-) cells): 100 to 200 nM
effect of C75 on non-cancerous cells treated with paclitaxel (HFF1 cells): protective effect
effect on HeLa spheroids (HeLa spheroids; 500 nM C75 or 250 nM C75-loaded nanoparticles, over 3 days): disrupt HeLa spheroids
live/dead staining of spheroids (fluorescein diacetate / propidium iodide) (HeLa spheroids; HeLa spheroids, 500 nM, three days): majority of HeLa cells were dead
